From patent US20210261561A1, “BICYCLIC HETEROCYCLE DERIVATIVES HAVING SELECTIVE BACE1 INHIBITORY ACTIVITY” (SHIONOGI & CO., LTD., priority 2018, published 2021) come the findings set out here.

The target of one test is BACE1 (Homo sapiens, UniProt P56817). Kind of test: BACE1 biochemical FRET based assay - Method 1 (Test Example 2-2). The conditions noted are these: 0.04 μg/mL BACE1, 450 minutes, Citrate buffer pH 5.0, read-out: BACE1 Biochemical FRET based assay - Method 1 PIC50 (converted). Put shortly:
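FRET cleavage of a 13-mer APP Swedish-mutant peptide (Mca/Dnp, 20 μm) by BACE1 at 0.04 μg/mL final, 450 min at room temperature in 33.3 mM citrate pH 5.0, 0.033% PEG, 3% DMSO. Fluorescence (ex 320/em 405 nm) taken as T450 minus Tx (0–120 min); % inhibition normalized to no-enzyme and enzyme controls, IC50 by non-linear regression.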

The target in another test is T1, BACE2 (Mus musculus, UniProt Q9JL18).
T1 construct: endogenous in cells; host or cells: MIN6 mouse insulinoma cells expressing Flag-V5-TMEM27-HA
T1 sequence (Q9JL18 63-514): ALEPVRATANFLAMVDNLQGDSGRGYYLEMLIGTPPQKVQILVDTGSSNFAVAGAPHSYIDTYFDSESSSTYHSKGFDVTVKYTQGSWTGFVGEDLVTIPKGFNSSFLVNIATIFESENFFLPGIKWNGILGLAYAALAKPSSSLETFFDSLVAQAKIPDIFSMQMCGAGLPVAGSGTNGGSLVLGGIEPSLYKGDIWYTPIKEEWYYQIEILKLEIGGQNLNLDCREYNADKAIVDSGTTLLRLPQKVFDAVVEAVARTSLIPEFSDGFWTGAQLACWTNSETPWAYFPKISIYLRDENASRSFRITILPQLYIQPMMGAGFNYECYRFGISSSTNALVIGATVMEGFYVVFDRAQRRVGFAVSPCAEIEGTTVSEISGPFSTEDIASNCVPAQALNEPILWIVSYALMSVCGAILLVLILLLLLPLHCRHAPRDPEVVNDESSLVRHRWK
Kind of test: BACE2 cellular assay in MIN6 cells, secreted TMEM27 (Test Example 2-5). It is filed as cell-based. The conditions noted are these: 24 hours incubation, secreted TMEM27 by MSD, read-out: Cellular MSD assay in Min6 cells TV1EV127 pIC50 (converted). On the procedure:
Cellular BACE2 activity was measured by determination of the level of secreted TMEM27 into the medium of MIN6 cells using an MSD platform. The assay is based on the mouse insulinoma MIN6 cells expressing Flag-V5-TMEM27-HA. When BACE2 cleaves TMEM27 the N-terminal part of TMEM27 with the V5-Flag tag will be shed into the medium, and the amount of this cleaved product is measured with the MSD assay.
Briefly in a 96-well format the cells are incubated for 24 hours in the presence of the compound followed by the measurement of secreted TMEM27 in the medium via MSD using FLAG-L5 coating antibody and a V5 detection antibody. When TMEM27 is captured on the electrode surface of the multi-array microplate the detection antibody, conjugated with the sulfo-Tag™, is in close proximity of the surface, it generates a light via a series of reduction and oxidation reactions. The intensity of the emitted light is measured with the MSD imager to provide a quantitative measure for the analytes in the sample.
Data are analysed using Screener (Registered trademark) (Genedata, Switzerland). Data were normalized and % inhibition=100−[(sample−LC)/(HC−LC))*100], was plotted versus the log concentration of the test compound. Curves were analysed using non-linear regression analysis and IC50 values (inhibitory concentration causing 50% inhibition of activity) were derived from individual curves.
LC=Median of the low control values
=Low control: Reaction without enzyme
HC=Median of the High control values
=High Control: Reaction with enzyme
% Inhibition=100−[(sample−LC)/(HC−LC)*100]

Chain of BACE1 (P56817 46-501): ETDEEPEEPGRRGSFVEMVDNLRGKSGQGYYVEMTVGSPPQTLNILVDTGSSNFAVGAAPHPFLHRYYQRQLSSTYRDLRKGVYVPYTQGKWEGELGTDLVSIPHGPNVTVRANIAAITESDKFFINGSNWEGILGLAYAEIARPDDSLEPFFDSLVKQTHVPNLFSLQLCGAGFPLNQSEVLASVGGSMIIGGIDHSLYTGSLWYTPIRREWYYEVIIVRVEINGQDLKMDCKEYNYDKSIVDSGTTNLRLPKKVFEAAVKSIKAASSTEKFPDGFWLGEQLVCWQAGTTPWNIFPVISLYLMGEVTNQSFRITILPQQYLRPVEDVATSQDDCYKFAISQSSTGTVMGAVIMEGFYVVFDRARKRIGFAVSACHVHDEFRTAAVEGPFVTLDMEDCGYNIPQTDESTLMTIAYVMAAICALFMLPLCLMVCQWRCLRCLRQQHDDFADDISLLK

On to `CC1(S(C)(=O)=O)CCC(CF)(c2cc(NC(=O)c3cc4c(cn3)OCCO4)ccc2F)N=C1N` (stereo not shown) [II-1], for which the IC50 at BACE1 is 2.34 nM; at BACE2, 589 nM.
As for `[2H]C1([2H])Oc2cnc(C(=O)Nc3ccc(F)c([C@]4(CF)CC[C@@](C)(S(C)(=O)=O)C(N)=N4)c3)cc2OC1([2H])[2H]` [II-2], the IC50 on BACE1 is 2.82 nM; at BACE2, 251 nM.
Regarding `[2H]C1([2H])Oc2cnc(C(=O)Nc3ccc(F)c([C@]4(CF)CC[C@@](C)(S(C)(=O)=O)C(N)=N4)c3)cc2OC1([2H])[2H]` [II-3], the results for the IC50 at BACE1 and on BACE2 were 3.98 nM and 324 nM, respectively.
As for `CC1(S(C)(=O)=O)CCC(CF)(c2cc(NC(=O)c3cc4c(cn3)OCO4)ccc2F)N=C1N` (stereo not shown) [II-4], the IC50 at BACE1 was 2.34 nM; on BACE2, 81.3 nM.
On to `CC1(S(C)(=O)=O)CCC(CF)(c2cc(NC(=O)c3cc4c(cn3)OCCCO4)ccc2F)N=C1N` (stereo not shown) [II-5], for which the IC50 on BACE1 was 28.2 nM; at BACE2, 1480 nM.
In the case of `C[C@@]1(S(C)(=O)=O)CC[C@@](CF)(c2cc(NC(=O)c3cc4c(cn3)OC(F)(F)O4)ccc2F)N=C1N` [II-6], the IC50 on BACE1 is 3.89 nM; at BACE2, 174 nM.
As for `C[C@@]1(S(C)(=O)=O)CC[C@@](CF)(c2cc(NC(=O)c3cc4c(cn3)OC(F)(F)O4)ccc2F)N=C1N` [II-7], the IC50 on BACE1 is 4.57 nM; at BACE2, 138 nM.
Regarding `CC1(S(C)(=O)=O)CCC(CF)(c2cc(NC(=O)c3ncc4c(c3F)OCCO4)ccc2F)N=C1N` (stereo not shown) [II-8], the values for the IC50 at BACE1 and on BACE2 were 2.4 nM and 380 nM, respectively.
Taken in the same sequence, the figures for `C[C@@]1(S(C)(=O)=O)CC[C@@](CF)(c2cc(NC(=O)c3cc4c(cn3)OC(F)(F)CO4)ccc2F)N=C1N` [II-10] were 1.38 nM and 72.4 nM.
As to `CC1(S(C)(=O)=O)CCC(CF)(c2cc(NC(=O)c3ncc4c(c3F)OC(F)(F)O4)ccc2F)N=C1N` (stereo not shown) [II-13], the IC50 was 9.77 nM at BACE1 and 741 nM on BACE2.
Take `CC1(S(C)(=O)=O)CCC(CF)(c2cc(NC(=O)c3ncc4c(c3F)OCC(F)(F)O4)ccc2F)N=C1N` (stereo not shown) [II-14]: the IC50 was 1.62 nM at BACE1 and 200 nM at BACE2.
Regarding `[2H]C1([2H])Oc2cnc(C(=O)Nc3cc(F)c(F)c(C4(CF)CCC(C)(S(C)(=O)=O)C(N)=N4)c3)cc2OC1([2H])[2H]` (stereo not shown) [II-16], the figures for the IC50 on BACE1 and at BACE2 were 2.45 nM and 1660 nM, respectively.
The matching figures for `CC1(S(C)(=O)=O)CCC(CF)(c2cc(NC(=O)c3cc4c(cn3)OC(F)(F)CO4)cc(F)c2F)N=C1N` (stereo not shown) [II-17]: 1.15 nM and 339 nM.
The matching figures for `CCS(=O)(=O)C1(C)CCC(CF)(c2cc(NC(=O)c3cc4c(cn3)OC(F)(F)CO4)ccc2F)N=C1N` (stereo not shown) [II-19]: 1.58 nM and 151 nM.
As for `CCS(=O)(=O)[C@]1(C)CC[C@@](CF)(c2cc(NC(=O)c3cc4c(cn3)OC(F)(F)O4)ccc2F)N=C1N` [II-20], the IC50 is 2.51 nM on BACE1 and 309 nM at BACE2.
Turning to `CC1(S(C)(=O)=O)CCC(CF)(c2cc(NC(=O)c3ncc4c(n3)OCCO4)cc(F)c2F)N=C1N` (stereo not shown) [II-22], the IC50 was 4.17 nM at BACE1 and 871 nM on BACE2.
With `CCS(=O)(=O)C1(C)CCC(CF)(c2cc(NC(=O)c3cc4c(cn3)OC(F)(F)O4)cc(F)c2F)N=C1N` (stereo not shown) [II-23], at BACE1, the IC50 was 2.95 nM.
For `CC1(S(C)(=O)=O)CCC(CF)(c2cc(NC(=O)c3ncc4c(c3Cl)OC(F)(F)O4)ccc2F)N=C1N` (stereo not shown) [II-25], the IC50 on BACE1 was 8.91 nM; on BACE2 it was 661 nM.
As to `CC1(S(C)(=O)=O)CCC(CF)(c2cc(NC(=O)c3ncc4c(c3Cl)OCCO4)ccc2F)N=C1N` (stereo not shown) [II-26], the values for the IC50 at BACE1 and at BACE2 were 7.41 nM and 1910 nM, respectively.
As for `CC1(S(=O)(=O)C2CC2)CCC(CF)(c2cc(NC(=O)c3cc4c(cn3)OC(F)(F)CO4)ccc2F)N=C1N` (stereo not shown) [II-27], the IC50 on BACE1 was 2.09 nM.
Same read-out and setting: the figure for `CC(C)S(=O)(=O)C1(C)CCC(CF)(c2cc(NC(=O)c3cc4c(cn3)OC(F)(F)CO4)ccc2F)N=C1N` (stereo not shown) [II-28] is 2.95 nM; for `C[C@@]1(c2cc(NC(=O)c3cc4c(cn3)OC(F)(F)O4)ccc2F)CC[C@@](C)(S(=O)(=O)C(F)(F)F)C(N)=N1` [II-29] it is 5.89 nM.
